# No end group written: not given here.
# Assays:
# [1] = system: A. baumannii isolate B-8.2-2; assay: Disk diffusion test (CLSI), antibiotic susceptibility profile; assay type: cell-based, Acinetobacter baumannii; conditions: CLSI breakpoints
# Method: (§1) ^aAntibiotic susceptibility profile of all isolated strains was evaluated by disk diffusion test, using the standard protocol guide of the Clinical and Laboratory Standards Institute (CLSI), and interpreted as S: Susceptible to standard dosing regimen; I: Intermediate; R: Resistant (in accordance with the criteria of CLST breakpoints).
# [2] = system: A. baumannii isolate C-8.1-2; assay: as above; assay type: cell-based, Acinetobacter baumannii; conditions: CLSI breakpoints
# Method: as §1
# [3] = system: A. baumannii isolate B-8.1-2; assay: as above; assay type: cell-based, Acinetobacter baumannii; conditions: CLSI breakpoints
# Method: as §1
# [4] = system: A. baumannii isolate D-10.1-2; assay: as above; assay type: cell-based, Acinetobacter baumannii; conditions: CLSI breakpoints
# Method: as §1
# [5] = system: A. baumannii isolate D-10.1-1; assay: as above; assay type: cell-based, Acinetobacter baumannii; conditions: CLSI breakpoints
# Method: as §1
# [6] = system: A. baumannii isolate A-8.2-1; assay: as above; assay type: cell-based, Acinetobacter baumannii; conditions: CLSI breakpoints
# Method: as §1
# [7] = system: A. baumannii isolate B-8.1-1; assay: as above; assay type: cell-based, Acinetobacter baumannii; conditions: CLSI breakpoints
# Method: as §1
# [8] = system: A. baumannii isolate C-8.2-1; assay: as above; assay type: cell-based, Acinetobacter baumannii; conditions: CLSI breakpoints
# Method: as §1
# [9] = system: A. baumannii B-8.1–2 (MDR); assay: microbe, parasite or virus in culture; assay type: cell-based, Acinetobacter baumannii; conditions: Acinetobacter baumannii
# Source text: (§2) Ten strains of both Gram-positive and -negative bacteria, including Staphylococcus aureus ATCC 25,923, S. epidermidis ATCC 12,228, Bacillus cereus ATCC 11,778, Listeria monocytogenes 10403S, Salmonella typhimurium ATCC 13,311, Pseudomonas aeruginosa ATCC 27,853, Shigella sonnei ATCC 11,060, A. baumannii ATCC 19,606, Escherichia coli ATCC 25,922 and E. coli O157:H7, were used in this study. Eight clinical isolates of multidrug-resistant (MDR) and extensively drug-resistant (XDR) A. baumannii, isolated from human (blood, sputum, respiratory sample, sterile site sample and urine), were kindly provided by Asst. Prof. Dr. Sakawrat Kanthawong (Faculty of Medicine, Khon Kaen University, Thailand) (Table S1). All bacterial strains, excluding L. monocytogenes 10403S and E. coli, were cultured in tryptic soy broth (TSB). L. monocytogenes was grown in TSB supplemented with 0.6% yeast extract (TSB-YE), and E. coli was cultured in Luria broth (LB). All of bacteria were cultured at 37 °C with continuous shaking at 220 rpm.
# (§3) Minimum inhibitory concentration (MIC) of peptides and antibiotics was assessed by a modified version of the broth microdilution method from the Clinical and Laboratory Standards Institute (CLSI) as previously described. In brief, mid-log phase growths of microbial strains were cultured in Müeller-Hinton broth (MHB) with an initial inoculum of 2–8 × 10^5 CFU/mL. Bacteria suspensions were incubated in sterile 96-well plates with test agents at desired concentrations. […] Minimum bactericidal concentration (MBC) determination was performed using a modified version of the colony count assay. In brief, fifty µl of all non-turbid wells from MIC experiments were spread on agar plates. The MBC value was defined as the lowest concentration of peptides with no colony growth on the plate. All assays were performed in triplicate.
# [10] = system: A. baumannii C-8.2–1 (XDR); assay: microbe, parasite or virus in culture; assay type: cell-based, Acinetobacter baumannii; conditions: Acinetobacter baumannii
# Source text: as §2, §3
# [11] = system: A. baumannii B-8.2–2 (XDR); assay: microbe, parasite or virus in culture; assay type: cell-based, Acinetobacter baumannii; conditions: Acinetobacter baumannii
# Source text: as §2, §3
# [12] = system: A. baumannii C-8.1–2 (MDR); assay: microbe, parasite or virus in culture; assay type: cell-based, Acinetobacter baumannii; conditions: Acinetobacter baumannii
# Source text: as §2, §3
# [13] = system: A. baumannii A-8.2–1 (XDR); assay: microbe, parasite or virus in culture; assay type: cell-based, Acinetobacter baumannii; conditions: Acinetobacter baumannii
# Source text: as §2, §3
# A. baumannii ATCC 19,606 = assay: microbe, parasite or virus in culture; assay type: cell-based, Acinetobacter baumannii; conditions: for MBC: ATCC19
# Source text: as §2, §3
# [14] = system: A. baumannii B-8.1–1 (MDR); assay: microbe, parasite or virus in culture; assay type: cell-based, Acinetobacter baumannii; conditions: Acinetobacter baumannii
# Source text: as §2, §3
# [15] = system: Shigella sonnei ATCC 11,060; assay type: cell-based; conditions: S. sonnei ATCC 11,060; broth microdilution, MHB, 24 h, 37 °C, triplicate
# Source text: as §2, §3
# [16] = system: Salmonella Typhimurium ATCC 13,311; assay type: cell-based; conditions: S. Typhimurium ATCC 13,311; broth microdilution, MHB, 24 h, 37 °C, triplicate
# Source text: as §2, §3
# [17] = system: Listeria monocytogenes 10403S; assay type: cell-based; conditions: L. monocytogenes 10403S; broth microdilution, MHB, 24 h, 37 °C, triplicate
# Source text: as §2, §3
# [18] = system: Staphylococcus epidermidis ATCC 12,228; assay type: cell-based; conditions: S. epidermidis ATCC 12,228; broth microdilution, MHB, 24 h, 37 °C, triplicate
# Source text: as §2, §3
# [19] = system: Staphylococcus aureus ATCC 25,923; assay type: cell-based; conditions: S. aureus ATCC 25,923; broth microdilution, MHB, 24 h, 37 °C, triplicate
# Source text: as §2, §3
# [20] = system: Escherichia coli O157:H7 MT strain; assay type: cell-based; conditions: E. coli O157:H7 MT strain; broth microdilution, MHB, 24 h, 37 °C, triplicate
# Source text: as §2, §3
# [21] = system: Bacillus cereus ATCC 11,778; assay type: cell-based; conditions: B. cereus ATCC 11,778; broth microdilution, MHB, 24 h, 37 °C, triplicate
# Source text: as §2, §3
# [22] = system: Escherichia coli ATCC 25,922; assay type: cell-based; conditions: E. coli ATCC 25,922; broth microdilution, MHB, 24 h, 37 °C, triplicate
# Source text: as §2, §3
# [23] = system: Pseudomonas aeruginosa ATCC 27,853; assay type: cell-based; conditions: P. aeruginosa ATCC 27,853; broth microdilution, MHB, 24 h, 37 °C, triplicate
# Source text: as §2, §3
# [24] = Acinetobacter baumannii, ATCC19, 24 h
# [25] = A. baumannii ATCC 19,606, broth microdilution (modified CLSI), MHB, 2–8 × 10^5 CFU/mL, 24 h, 37 °C, triplicate
Compound,Antibiotic susceptibility profile [1],Antibiotic susceptibility profile [2],Antibiotic susceptibility profile [3],Antibiotic susceptibility profile [4],Antibiotic susceptibility profile [5],Antibiotic susceptibility profile [6],Antibiotic susceptibility profile [7],Antibiotic susceptibility profile [8],"MIC (A. baumannii ATCC 19,606; [25]) [µg/mL]",MIC [15] [µg/mL],MIC [16] [µg/mL],MIC [17] [µg/mL],MIC [18] [µg/mL],MIC [19] [µg/mL],MIC [20] [µg/mL],MIC [21] [µg/mL],MIC [22] [µg/mL],MIC [23] [µg/mL],other results
C[C@H]1COc2c(N3CCN(C)CC3)c(F)cc3c(=O)c(C(=O)O)cn1c23 [Levofloxacin],R,R,R,R,I,R,S,R,,,,,,,,,,,"MBC [9]: 250 µg/mL; MIC [9]: 125 µg/mL; MBC [10]: 7.81 µg/mL; MIC [10]: 3.91 µg/mL; MBC [11]: 7.81 µg/mL; MIC [11]: 7.81 µg/mL; MBC [12]: 31.2 µg/mL; MIC [12]: 31.2 µg/mL; MBC [13]: 3.91 µg/mL; MIC [13]: 3.91 µg/mL; MBC (A. baumannii ATCC 19,606; Acinetobacter baumannii): ≤ 0.49 µg/mL; MIC (A. baumannii ATCC 19,606; [24]): ≤ 0.49 µg/mL; MBC [14]: 1.95 µg/mL; MIC [14]: ≤ 0.49 µg/mL"
RLFRRVKKVAGKI-NH2 [AP13],,,,,,,,,> 250,125,62.5,62.5,62.5,> 250,250,> 250,125,> 250,
RLFRRVKKVAGKIAKRIW-NH2 [AP18],,,,,,,,,7.81,3.91,3.91,3.91,3.91,7.81,15.63,7.81,7.81,3.91,
RLFRRVKKVAGKIAKRI-NH2 [AP17],,,,,,,,,31.25,7.81,7.81,7.81,7.81,62.5,125,62.5,15.63,15.63,
"CC1(C)S[C@@H]2[C@H](NC(=O)[C@H](N)c3ccccc3)C(=O)N2[C@H]1C(=O)O [Amp, Ampicillin]",R,R,R,R,R,R,R,R,,,,,,,,,,,
RLFRRVKKVAGKIA-NH2 [AP14],,,,,,,,,> 250,125,62.5,62.5,31.25,> 250,250,> 250,125,250,
"CNC(C)C1CCC(N)C(OC2C(N)CC(N)C(OC3OCC(C)(O)C(NC)C3O)C2O)O1 (stereo not shown) [Gen, Gentamicin]",R,R,R,I,R,R,I,R,,,,,,,,,,,
CN(C)c1ccc(O)c2c1C[C@H]1C[C@H]3[C@H](N(C)C)C(O)=C(C(N)=O)C(=O)[C@@]3(O)C(O)=C1C2=O [Minocycline],,,,,,,,,,,,,,,,,,,"MBC [9]: 15.6 µg/mL; MIC [9]: 0.98 µg/mL; MBC [10]: 31.2 µg/mL; MIC [10]: 1.95 µg/mL; MBC [11]: 31.2 µg/mL; MIC [11]: 3.91 µg/mL; MBC [12]: 31.2 µg/mL; MIC [12]: 3.91 µg/mL; MBC [13]: 31.2 µg/mL; MIC [13]: 0.98 µg/mL; MBC (A. baumannii ATCC 19,606; Acinetobacter baumannii): 1.95 µg/mL; MIC (A. baumannii ATCC 19,606; [24]): ≤ 0.49 µg/mL; MBC [14]: 7.81 µg/mL; MIC [14]: ≤ 0.49 µg/mL"
RLFRRVKKVAGK-NH2 [AP12],,,,,,,,,> 250,250,125,125,250,> 250,250,> 250,125,> 250,
RLFRRVKKVAGKIAKR-NH2 [AP16],,,,,,,,,62.5,15.63,15.63,15.63,7.81,125,125,250,31.25,62.5,
RLFRRVKKVAGKIAK-NH2 [AP15],,,,,,,,,62.5,62.5,31.25,31.25,15.63,250,62.5,> 250,31.25,125,
"CC(C)(O/N=C(\C(=O)N[C@@H]1C(=O)N2C(C(=O)[O-])=C(C[n+]3ccccc3)CS[C@H]12)c1csc(N)n1)C(=O)O [Caz, Ceftazidime]",R,I,R,I,R,R,S,R,,,,,,,,,,,

# Source: paper PMC9508196 (Scientific Reports, 2022)
